Source: PMC10208570, “Peptidomimetic antibiotics disrupt the lipopolysaccharide transport bridge of drug-resistant Enterobacteriaceae” (Science Advances, 2023)
Where a SMILES comes first, the peptide text is derived from it. Bridges are numbered along the chain shown (N, C = ends). [ ]: non-standard residue; d: D form. Hyp = O=C(O)[C@@H]1C[C@@H](O)CN1; Pen = CC(C)(S)[C@H](N)C(=O)O; dDab = NCC[C@@H](N)C(=O)O; Nle = CCCC[C@H](N)C(=O)O; Dab = NCC[C@H](N)C(=O)O

Tests used:
[1] = test system: E. coli ATCC 25922 (parent / WT); test: microbe, parasite or virus in culture; conditions: CLSI method; parent strain
Protocol: (§1) MIC assays [Clinical and Laboratory Standards Institute (CLSI) methodology] and serial passage studies were performed as described by Luther et al. ([6]). […] Resistant mutants were isolated, and their MIC values were determined and sent to Microbes NG (Birmingham, United Kingdom) for whole-genome sequencing and bioinformatic analysis.

[2] = test system: E. coli ATCC 25922 LptA Q62L mutant; test: microbe, parasite or virus in culture; conditions: CLSI method; clone harboring LptA Q62L
Protocol: as §1

[3] = test system: K. pneumoniae ATCC 43816 (parent / WT); test: microbe, parasite or virus in culture; conditions: ATCC 43816
Protocol: as §1

[4] = test system: K. pneumoniae NCTC 13443 (NDM-1) (parent / WT); test: microbe, parasite or virus in culture; conditions: CLSI method; parent strain
Protocol: as §1

[5] = test system: K. pneumoniae NCTC 13443 (NDM-1) LptA Q62L mutant; test: microbe, parasite or virus in culture; conditions: CLSI method; clone harboring LptA Q62L
Protocol: as §1

[6] = target: T1, LptAm (Escherichia coli, UniProt P0ADV1); test: biochemical; type: binding, E. coli
T1 construct: His6-GB1 (N, cleaved yes); made in house; host or cells: E. coli BL21 (DE3)
T1 sequence (P0ADV1 28-159): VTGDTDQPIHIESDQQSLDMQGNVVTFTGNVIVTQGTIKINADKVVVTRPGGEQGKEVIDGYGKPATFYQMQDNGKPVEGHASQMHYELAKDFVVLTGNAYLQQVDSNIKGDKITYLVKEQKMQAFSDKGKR
Protocol: (§2) Protein stocks were purified and concentrated in buffer 1 [50 mM Na-Pi (pH 7) and 150 mM NaCl] and, if necessary, diluted to desired concentrations using buffer 2 [50 mM Na-Pi (pH 7), 150 mM NaCl, and 0.05% Tween 20]. Peptide stocks and fluorescently labeled peptide stocks were made in buffer 2. Every serial dilution consisted of 24 wells, the first well with the highest concentrate and the last well (well 24) with the lowest. First, 50 μl of buffer 2 was added to the wells 2 to 24 of each serial dilution. Then, 100 μl of concentrated unlabeled peptide/protein in their respective buffers was added to the first well. Fifty microliters were taken from the first well and added to the second well for a 1:1 serial dilution and continued for the 24 wells. […] Plates were covered with adhesive seals and left to incubate overnight at 4°C before FP measurements the next day. Anisotropy was measured using the Tecan Safire2 plate reader using a 10-nm bandwidth and setting the excitation and emission wavelengths to 635 and 670 nm, respectively. The G-factor (G) was also determined empirically as 1.094 for the instrument and included in all the anisotropy calculations.
(§3) For the indirect binding assays, r was calculated in the same manner as the direct binding assays. […] The control was subtracted from r to yield r′. Data were fit to a sigmoidal interpolation model on GraphPad Prism 9, and an IC50 was generated for each unlabeled peptide or protein measured.

[7] = target: T2, LptAmQ62L (Escherichia coli, UniProt P0ADV1, Q62L); test: biochemical; type: binding, E. coli
T2 construct: His6-GB1 (N, cleaved yes); made in house; host or cells: E. coli BL21 (DE3)
T2 sequence (P0ADV1 28-159 Q62L): as the sequence (P0ADV1 28-159) above, with Q35L counted along it
Protocol: as §2, §3

[8] = test system: human red blood cells; test: Haemolysis; type: cell-based; conditions: PBS-washed human red blood cells; 1 h at 200 mg/liter, 37°C; OD 540 nm; versus 100% lysis control 2.5% Triton X-100; biological replicates
Protocol: To test their hemolytic potential, compounds were incubated in the presence of phosphate-buffered saline (PBS)–washed human red blood cells. After 1-hour incubation at 200 mg/liter and 37°C, the samples were centrifuged (3220g), the supernatants were diluted in Dulbecco’s PBS, and optical density at 540 nm was determined. The hemolysis induced by the compound was calculated versus a 100% lysis control prepared with 2.5% Triton X-100 (table S4A).

[9] = in vitro; type: cell-based; conditions: human
Protocol: The cytotoxicity of compounds was determined by determining the number of viable cells using the Sigma Cell Counting Kit-8 (WST-8). HeLa cells were incubated at 37°C and 5% CO2 for 24 hours, after which the medium was replaced with fresh medium containing dilutions of compounds. […]

[10] = Plasma protein binding; type: in vitro ADME, human; conditions: human, plasma, pH 7.5
Protocol: (§4) After ultrafiltration, protein binding was determined by subtracting the percentage of compound in ultrafiltrate from the total amount of compound in spiked plasma (table S4A).

[11] = Plasma protein binding; type: in vitro ADME, mouse; conditions: mouse, plasma, pH 7.5
Protocol: as §4

Compound	MIC E. coli ATCC 25922 Parent [1] [micrograms per milliliter]	MIC E. coli ATCC 25922 Q62L mutant [2] [micrograms per milliliter]	MIC K. pneumoniae ATCC 43816 Parent [3] [micrograms per milliliter]	MIC K. pneumoniae NCTC 13443 (NDM-1) Parent [4] [micrograms per milliliter]	MIC K. pneumoniae NCTC 13443 (NDM-1) Q62L mutant [5] [micrograms per milliliter]	IC50 [6] [nM]	Ki [6] [nM]	IC50 [7] [nM]	Ki [7] [nM]	Haemolysis % at 0.2 g/L [8] [%]	IC50 at 48 h [9] [nM]	fraction unbound at 30 min, 10 mg/liter [10]	fraction unbound at 30 min, 10 mg/liter [11]
CCCC[C@H](NC(=O)[C@H](CCCNC(=N)N)NC(=O)[C@H](CCN)NC(=O)[C@@H]1CSSC[C@H](NC(=O)[C@H](Cc2ccc(O)cc2)NC(=O)[C@@H](NC(=O)[C@@H](NC(=O)[C@@H]2CCCN2C(=O)[C@@H](NC(=O)[C@@H]2CCCN2C(=O)[C@H](CCCCN)NC(=O)[C@@H](N)CCCCN)C(C)C)[C@@H](C)CC)[C@@H](C)CC)C(=O)N[C@@H](CC(N)=O)C(=O)N[C@@H](CCCNC(=N)N)C(=O)N[C@@H](CCCNC(=N)N)C(=O)N[C@@H]([C@@H](C)O)C(=O)NCC(=O)N[C@@H](CCCCN)C(=O)N1)C(=O)O [Compound 1] (H-KKPVPIIYCNRRTGKC[Dab]R[Nle]-OH; disulfide 9-16)	0.063	>8	0.25	0.5	>8	6.6 ± 0.5	1.1 ± 0.1	30.4 ± 8.8	20.5 ± 6	0	158000	0.24	0.14
CC[C@H](C)[C@H](NC(=O)[C@@H](NC(=O)[C@@H]1C[C@@H](O)CN1C(=O)[C@@H](N)C(C)C)[C@@H](C)CC)C(=O)N[C@@H](Cc1ccc(O)cc1)C(=O)N[C@@H]1C(=O)N[C@@H](CC(N)=O)C(=O)N[C@@H](CCCNC(=N)N)C(=O)N[C@@H](CCN)C(=O)N[C@@H]([C@@H](C)O)C(=O)N[C@H](CCN)C(=O)N[C@@H](CCCCN)C(=O)N[C@H](C(=O)N[C@@H](CCN)C(=O)N[C@@H](CCCNC(=N)N)C(=O)N[C@@H](Cc2ccc(O)cc2)C(=O)O)CSSC1(C)C [Compound 4] (H-V[Hyp]IIY[Pen]NR[Dab]T[dDab]KC[Dab]RY-OH; disulfide 6-13)	0.063	0.25	0.25	1	4	–	–	–	–	0	536000	0.09	0.14
